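Where inhibition never reached the appropriate level, the endpoint shown equals the highest concentration tested. Otherwise, values were interpolated linearly from a five-concentration, 48-hour dose response in 96-well plates. GI50 is the concentration that inhibits growth by half. At the TGI there is no net growth.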
Legend:
Assay in all cases: growth of human tumour cells (NCI), 48 h
MDA-MB-435 = tested on: MDA-MB-435
OVCAR-5 ovarian = tested on: OVCAR-5 ovarian
SF-295 CNS = tested on: SF-295 CNS
MDA-MB-231 breast = tested on: MDA-MB-231 breast
NCI-H460 lung = tested on: NCI-H460 lung
RPMI-8226 leukemia = tested on: RPMI-8226 leukemia
TK-10 renal = tested on: TK-10 renal
HOP-62 NSCLC = tested on: HOP-62 NSCLC
UACC-62 melanoma = tested on: UACC-62 melanoma
HOP-92 NSCLC = tested on: HOP-92 NSCLC

SMILES | GI50 (MDA-MB-435) | TGI (MDA-MB-435) | GI50 (OVCAR-5 ovarian) | TGI (OVCAR-5 ovarian) | GI50 (SF-295 CNS) | TGI (SF-295 CNS) | GI50 (MDA-MB-231 breast) | TGI (MDA-MB-231 breast) | GI50 (NCI-H460 lung) | TGI (NCI-H460 lung) | GI50 (RPMI-8226 leukemia) | TGI (RPMI-8226 leukemia) | GI50 (TK-10 renal) | TGI (TK-10 renal) | GI50 (HOP-62 NSCLC) | TGI (HOP-62 NSCLC) | GI50 (UACC-62 melanoma) | TGI (UACC-62 melanoma) | GI50 (HOP-92 NSCLC) | TGI (HOP-92 NSCLC)
COc1ccc2c(c1)N(CCO)C1=C(C(=O)OC1)C2c1ccc(OC)c(OC)c1 (configuration not stated) | 0.407 µM | 2.13 µM | 5.76 µM | > 100 µM | 2.43 µM | > 100 µM | 3.63 µM | 10.7 µM | 3.09 µM | 12.6 µM | 3.78 µM | > 100 µM | 4.19 µM | > 100 µM | 4.89 µM | > 100 µM | 2.13 µM | > 100 µM |  | 
O=C(O)c1cn(C2CC2)c2cc(N3CCN(Cc4ccc5ccccc5c4O)CC3)c(F)cc2c1=O | 3.12 µM | > 100 µM |  |  | 4.29 µM | > 100 µM | 3.41 µM | > 100 µM |  |  |  |  |  |  | 2.45 µM | 9.36 µM | 5.06 µM | > 100 µM | 2.15 µM | 5.44 µM
CC1(C)CC(N2CCN(C3CC(C)(C)NC(C)(C)C3)CC2)CC(C)(C)N1 |  |  |  | > 100 µM |  | > 100 µM |  |  |  | > 100 µM |  | > 100 µM |  | > 100 µM |  | > 100 µM |  | > 100 µM |  | > 100 µM
NCC1(N2CCOCC2)C2CCCC21CNc1ccccc1 (configuration not stated) |  |  |  | > 100 µM |  | > 100 µM |  |  |  | > 100 µM |  |  |  | > 100 µM |  | > 100 µM |  | > 100 µM |  | > 100 µM
O=C1c2ccccc2C(=O)c2c1ccc1c2N=C(c2ccc(Br)cc2)CC(c2cccc3ccccc23)N1 (configuration not stated) |  |  |  | > 100 µM |  | > 100 µM |  |  |  | > 100 µM |  | > 100 µM |  | > 100 µM |  | > 100 µM |  | > 100 µM |  | 
N=C1/C(=C2\Nc3ccccc3S2)CC(=O)N1c1ccc(SC(F)F)cc1 | 7.69 µM | > 100 µM | 8.88 µM | 79.4 µM | 1.1 µM | 9.32 µM | 24.6 µM | > 100 µM | 0.81 µM | 30.9 µM | 0.626 µM | 66 µM | 22 µM | > 100 µM | 1.49 µM | 14.7 µM | 24 µM | > 100 µM |  | 
N#Cc1c(N)c(C#N)c2c(c1-c1ccc(Cl)cc1)COc1ccc(F)cc1-2 | > 50 µM | > 50 µM | 48.6 µM | > 50 µM | 13.5 µM | > 50 µM | 7.71 µM | 45.7 µM | 18.7 µM | > 50 µM | 19 µM | > 50 µM | 7.63 µM | 29.9 µM |  |  | 46.4 µM | > 50 µM | > 50 µM | > 50 µM
COc1ccc(/C=C2/CN(CCC#N)C/C(=C\c3ccc(OC)cc3)C2=O)cc1 | 2.99 µM | > 100 µM | 3.33 µM | 24.9 µM |  |  | 2.71 µM | 15 µM | 1.97 µM | 4.75 µM | 0.401 µM | 9.02 µM | 3.21 µM | 7.91 µM | 2.17 µM | 4.79 µM | 1.66 µM | 3.81 µM | 1.85 µM | 20.8 µM
NC(=O)c1ncn(Cc2ccccc2)c1CNC(N)=S |  |  |  | > 100 µM |  | > 100 µM |  |  |  | > 100 µM |  | > 100 µM |  | > 100 µM |  |  |  | > 100 µM |  | 

Source: PubChem BioAssay (NCI)
